Measured values: patent US8445409B2, “Use of 5-benzyloxymethyl-1,2-isoxazoline derivatives as a herbicide” (Moghu Research Center Ltd., priority 2007, dated 2013)
“Also recorded” adds a separate entry of the source.

Experiments:
Annual bluegrass = experiment: Herbicidal activity at different growth stages, fresh weight suppression; type: in vivo; details: for Suppression ratio relative to the biomass of the untreated group: Annual bluegrass 1 leaf / Suppression ratio relative to the biomass of the untreated group: Annual bluegrass 2 leaf / Suppression ratio relative to the biomass of the untreated group: Annual bluegrass 3 leaf / Suppression ratio relative to the biomass of the untreated group: Annual bluegrass 4 leaf / Suppression ratio relative to the biomass of the untreated group: Annual bluegrass PRE: fresh weight two weeks after treatment
Experimental: To a cup pot having a surface area of 100 cm^2 wherein mixed soils including blend bed soil (Boonong, Horticultural Bed Soil No. 3) and sandy loam soil were filled (mixing ratio, 1:1), seeds of large crabgrass and annual bluegrass were sown consecutively at an one week interval. The pots were moistened by sub-irrigation, and kept in a greenhouse maintained at 25˜30° C. (day) or 15˜25° C. (night). The said weeds were grown to various growth stages from pre-emergence to the four-leaf stage. […] Spray volume was adjusted to 2,000 L/ha. The method to spray of the test substance and prepare spray solutions were the same as described above. The reference herbicide was used after it was diluted with 0.2% (v/v) Tween 20 aqueous solution. The test was conducted in a randomized block design with three replicates. Two weeks after the treatment, plant parts remained above the pot soil surface were cut and the fresh weight was weighed. Results are given by a suppression ratio relative to the biomass that was obtained from the untreated group (see, Table 3).

Soybean = experiment: Upland pot test, pre-/post-emergence spray, visual rating; type: in vivo, soybean (GLYMX); details: for Visual measurement: Crops, Soybean: 2 weeks after spray, 0-10 scale (10=completely killed)
Description: (§1) To a rectangular plastic pot having a surface area of 300 cm^2, mixed soils including blend bed soil (Boonong, Horticultural Bed Soil No. 3) and sandy loam soil were filled (mixing ratio, 1:1). Seeds of the eight different types of weeds including gramineous weed such as barnyardgrass, large crabgrass, green foxtail, fall panicum, and broadleaf weed such as common cocklebur, velvetleaf, Indian joint-vetch, and morningglory were sown. To the other pot containing the same soil mixture, seeds of the five different types of crops including corn, soybean, cotton, wheat and rice were sown. Pots were kept in a greenhouse of which temperature was maintained at 25˜30° C. (day) or 15˜25° C. (night), and regularly watered.
(§2) After fourteen days and when the crops and the weeds reached their three-leaf stage, the other set of a crop pot and a weed pot were prepared by the same method as described above. Then, “test substance” was sprayed thereto. In this case, spray treatment to the plants after they have grown for two weeks corresponded to post-emergence treatment while spray treatment to the seeds right after the sowing corresponded to pre-emergence treatment. Spray was carried out by using a track sprayer (R&D Sprayer, USA) equipped with a Teejet 8002 nozzle (Spraying Systems Co., USA). Spray volume was adjusted to 300 L/ha. The spray solution was prepared by dissolving the “test substance” in acetone and adding the same volume of 0.2% (v/v) Tween 20 aqueous solution. Dosage of the test substance was 500, 250, 125, 62.5 or 31.3 g/ha. Two weeks after the spray of the test substance, efficacy and phytotoxic effect to the crops and the weeds were visually measured based on a 0 to 10 scale (0: no efficacy, 10: completely killed).

Bentgrass = experiment: Turfgrass safety test (sod mat pots), visual phytotoxicity; type: in vivo; details: in vivo
Description: (§3) Commercially available sod mats of zoysiagrass and bentgrass, Kentucky bluegrass, and perennial ryegrass were purchased. After cutting each turf sod mat in a size of 10 cm×20 cm, it was transplanted to a rectangular plastic pot having a surface area of 300 cm^2 wherein mixed soils including blend of a bed soil (Boonong, Horticultural Nursery Soil No. 3) and sandy loam soil were filled (mixing ratio, 1:1). After transplanting, the grass was mowed (0.5˜1.0 cm in height) once a week, and kept for one month in a greenhouse maintained at 25˜30° C. (day) or 15˜25° C. (night), then the test substance of the present invention was applied at dosage of 4, 2, 1 and 0.5 kg/ha. As a reference, Dithiopyr (32% EC, manufactured by Dongbu Hannong Chemical Company, KOREA) was applied at the recommended rate of 0.48 kg/ha, or twice or quadruple amount thereof, i.e., 0.96 and 1.92 kg/ha, respectively. Spray was made by a track sprayer equipped with a Teejet 8002 nozzle. Spray volume was adjusted to 2,000 L/ha, which was a typical value for an Asian (Korea and Japan) golf course. The spray solution was prepared by dissolving the “test substance” in acetone and adding the same volume of 0.2% (v/v) Tween 20 aqueous solution. Two, four or six weeks after the spray of the test substance, phytotoxicity to the turfgrass were visually evaluated based on 0 to 10 scale (0: no phytotoxic effect, 10: completely killed). The test was conducted in a randomized block design with a three replicates and the results were summarized in the following Table 2 is an average value of the replicates.

Kentucky bluegrass = experiment: as above; type: in vivo; details: in vivo
Description: as §3

Perennial ryegrass = experiment: as above; type: in vivo; details: in vivo
Description: as §3

Cocklebur = experiment: Upland pot test, pre-/post-emergence spray, visual rating; type: in vivo, common cocklebur (XANST); details: 2 weeks after spray, 0-10 scale (10=completely killed)
Description: as §1, §2

[1] = test system: broadleaf weeds such as common cocklebur, Indian joint-vetch, velvetleaf, morningglory; experiment: Upland pot test, broadleaf weeds as a group; type: in vivo
Description: as §1, §2

Large crabgrass = experiment: Herbicidal activity at different growth stages, fresh weight suppression; type: in vivo; details: .12 kg/ha, fresh weight two weeks after treatment
[2] = post-emergence foliar spray at three leaf stage, 31.2 g/ha
[3] = post-emergence foliar spray at three leaf stage, 62.5 g/ha
[4] = post-emergence foliar spray at three leaf stage, 125 g/ha
[5] = post-emergence foliar spray at three leaf stage, 250 g/ha
[6] = post-emergence foliar spray at three leaf stage, 500 g/ha
[7] = pre-emergence soil treatment, 31.2 g/ha
[8] = pre-emergence soil treatment, 62.5 g/ha
[9] = pre-emergence soil treatment, 125 g/ha
[10] = pre-emergence soil treatment, 250 g/ha
[11] = pre-emergence soil treatment, 500 g/ha

For `Cc1ccsc1C1=NOC(C)(COCc2c(F)cccc2F)C1` (stereo not drawn) [test substance, 5-(2,6-difluorobenzyl)oxymethyl-5-methyl-3-(4-methylthiophen-5-yl)-1,2-isoxazoline], the “Suppression ratio relative to the biomass of the untreated group: Annual bluegrass 1 leaf” value (Annual bluegrass; 1 kg/ha) was 97%, the “Suppression ratio relative to the biomass of the untreated group: Annual bluegrass 2 leaf” value (Annual bluegrass; 1 kg/ha) was 93% and the “Suppression ratio relative to the biomass of the untreated group: Annual bluegrass 3 leaf” value (Annual bluegrass; 1 kg/ha) was 66%. The “Suppression ratio relative to the biomass of the untreated group: Annual bluegrass 4 leaf” value (Annual bluegrass; 1 kg/ha) was 55%, the “Suppression ratio relative to the biomass of the untreated group: Annual bluegrass PRE” value (Annual bluegrass; 1 kg/ha) was 100% and the “Suppression ratio relative to the biomass of the untreated group: Annual bluegrass 1 leaf” value (Annual bluegrass; 2 kg/ha) was 99%. For the same compound, the “Suppression ratio relative to the biomass of the untreated group: Annual bluegrass 2 leaf” value (Annual bluegrass; 2 kg/ha) was 95%, the “Suppression ratio relative to the biomass of the untreated group: Annual bluegrass 3 leaf” value (Annual bluegrass; 2 kg/ha) was 69% and the “Suppression ratio relative to the biomass of the untreated group: Annual bluegrass 4 leaf” value (Annual bluegrass; 2 kg/ha) was 60%. For the same compound, the “Suppression ratio relative to the biomass of the untreated group: Annual bluegrass PRE” value (Annual bluegrass; 2 kg/ha) was 100%, the “Suppression ratio relative to the biomass of the untreated group: Annual bluegrass 1 leaf” value (Annual bluegrass; .12 kg/ha) was 37% and the “Suppression ratio relative to the biomass of the untreated group: Annual bluegrass 2 leaf” value (Annual bluegrass; .12 kg/ha) was 35%. The “Suppression ratio relative to the biomass of the untreated group: Annual bluegrass 3 leaf” value (Annual bluegrass; .12 kg/ha) was 0%, the “Suppression ratio relative to the biomass of the untreated group: Annual bluegrass 4 leaf” value (Annual bluegrass; .12 kg/ha) was 0% and the “Suppression ratio relative to the biomass of the untreated group: Annual bluegrass PRE” value (Annual bluegrass; .12 kg/ha) was 95%. The “Suppression ratio relative to the biomass of the untreated group: Annual bluegrass 1 leaf” value (Annual bluegrass; .25 kg/ha) was 95%, the “Suppression ratio relative to the biomass of the untreated group: Annual bluegrass 2 leaf” value (Annual bluegrass; .25 kg/ha) was 82% and the “Suppression ratio relative to the biomass of the untreated group: Annual bluegrass 3 leaf” value (Annual bluegrass; .25 kg/ha) was 18%. For the same compound, the “Suppression ratio relative to the biomass of the untreated group: Annual bluegrass 4 leaf” value (Annual bluegrass; .25 kg/ha) was 2%, the “Suppression ratio relative to the biomass of the untreated group: Annual bluegrass PRE” value (Annual bluegrass; .25 kg/ha) was 100% and the “Suppression ratio relative to the biomass of the untreated group: Annual bluegrass 1 leaf” value (Annual bluegrass; .5 kg/ha) was 96%. The “Suppression ratio relative to the biomass of the untreated group: Annual bluegrass 2 leaf” value (Annual bluegrass; .5 kg/ha) was 90%, the “Suppression ratio relative to the biomass of the untreated group: Annual bluegrass 3 leaf” value (Annual bluegrass; .5 kg/ha) was 61% and the “Suppression ratio relative to the biomass of the untreated group: Annual bluegrass 4 leaf” value (Annual bluegrass; .5 kg/ha) was 37%. For the same compound, the “Suppression ratio relative to the biomass of the untreated group: Annual bluegrass PRE” value (Annual bluegrass; .5 kg/ha) was 100%, the “Suppression of annual bluegrass” value (Annual bluegrass; PRE to 2-leaf stage, 0.5 kg/ha or above) was no less than 90% and the “Control of annual bluegrass (in words)” value (Annual bluegrass; over three-leaf stage) was “suppressed but were not completely controlled”. For the same compound, the “Visual measurement: Crops, Soybean” value (Soybean; [2]) was 0, the “Visual measurement: Crops, Soybean” value (Soybean; [3]) was 0 and the “Visual measurement: Crops, Soybean” value (Soybean; [4]) was 0. For the same compound, the “Visual measurement: Crops, Soybean” value (Soybean; [5]) was 2, the “Visual measurement: Crops, Soybean” value (Soybean; [6]) was 6 and the “Safety to soybean (in words)” value (Soybean; post-emergence treatment) was “not safe”. For the same compound, the “Visual measurement: Crops, Soybean” value (Soybean; [7]) was 0, the “Visual measurement: Crops, Soybean” value (Soybean; [8]) was 0 and the “Visual measurement: Crops, Soybean” value (Soybean; [9]) was 0. The “Visual measurement: Crops, Soybean” value (Soybean; [10]) was 0, the “Visual measurement: Crops, Soybean” value (Soybean; [11]) was 0 and the “Phytotoxic effect, visual assessment: Bentgrass Week 2” value (Bentgrass) was 2.3. For the same compound, the “Phytotoxic effect, visual assessment: Bentgrass Week 4” value (Bentgrass) was 3.0, the “Phytotoxic effect, visual assessment: Kentucky bluegrass Week 6” value (Kentucky bluegrass; Kentucky bluegrass, 6 weeks) was 0.0 and the “Phytotoxic effect, visual assessment: Kentucky bluegrass Week 6” value (Kentucky bluegrass) was 1.0. For the same compound, the “Safety to Kentucky bluegrass (in words)” value (Kentucky bluegrass) was “safe”, the “Phytotoxic effect, visual assessment: Perennial ryegrass Week 2” value (Perennial ryegrass) was 3.0 and the “Phytotoxic effect, visual assessment: Perennial ryegrass Week 4” value (Perennial ryegrass) was 2.7. For the same compound, the “Phytotoxic effect, visual assessment: Perennial ryegrass Week 6” value (Perennial ryegrass) was 2.0, the “Safety to perennial ryegrass (in words)” value (Perennial ryegrass) was “safe” and the “Visual measurement: Broadleaf weed, Cocklebur” value (from here on “Visual measurement … Cocklebur”) (Cocklebur; [2]) was 0. The “Visual measurement … Cocklebur” value (Cocklebur; [3]) was 0, the “Visual measurement … Cocklebur” value (Cocklebur; [4]) was 1 and the “Visual measurement … Cocklebur” value (Cocklebur; [5]) was 3. The “Visual measurement … Cocklebur” value (Cocklebur; [6]) was 7, the “Visual measurement … Cocklebur” value (Cocklebur; [7]) was 0 and the “Visual measurement … Cocklebur” value (Cocklebur; [8]) was 0. For the same compound, the “Visual measurement … Cocklebur” value (Cocklebur; [9]) was 0, the “Visual measurement … Cocklebur” value (Cocklebur; [10]) was 0 and the “Visual measurement … Cocklebur” value (Cocklebur; [11]) was 0. For the same compound, the “Control of broadleaf weeds (in words)” value ([1]; post-emergence application, 500 g/ha) was “well controlled”, the “Control of broad-leaf weeds (in words)” value ([1]; post-emergence treatment at three-leaf stage, FIG. 2) was “somewhat controlled showing a mild suppression effect” and the “Effect on broadleaf weeds (in words)” value ([1]; pre-emergence treatment, FIG. 1) was “almost no effect; also recorded: not affected”. For the same compound, the “Suppression ratio relative to the biomass of the untreated group: Large crabgrass 1 leaf” value (Large crabgrass) was 95%, the “Suppression ratio relative to the biomass of the untreated group: Large crabgrass 3 leaf” value (Large crabgrass) was 23% and the “Suppression ratio relative to the biomass of the untreated group: Large crabgrass PRE” value (Large crabgrass) was 84%.
